Assay results reported in US10618869B2, “Oligo-benzamide compounds and their use” (The Board of Regents of the University of Texas System, priority 2010, dated 2020).
“Also recorded” adds a separate entry of the source.

Test system: PCa cell lines that contain AR
Experiment: DHT-induced proliferation of prostate cancer cells (MTT assay)
Type: cell-based
Settings: DHT-induced proliferation, MTT assay; structure-function series
Method: FIGS. 10A-E. D2 blocks proliferation of prostate cancer cells in vitro and in vivo (a) Effect of pretreatment with 100 nM of D1 and D2 on DHT-induced proliferation in multiple prostate cancer cell lines in MTT assay. Numbers are normalized to a baseline of 100, which represents the untreated rate of proliferation. (b) Effect of pretreatment with 100 nM of D1 and D2 on DHT-induced proliferation in LNCaPcells on a Cyquant assay. (c) Dose dependent curve of D2 on proliferation of LAPC4 cells. (d) Rescue of DHT induced proliferation by overexpression of PELP1 following suppression of DHT induced proliferation with 100 nM of D2. (e). Effect of direct intratumoral injections of D1 and D2 on the proliferation of prostate cancer xenografts in animal models: Following establishment of subcutaneous xenografts in animal models, daily direct intratumoral injections of D1 and D2 were performed. Bioluminesence imaging was used to track the growth of the tumors and the effect of D1 and D2 quantitated as shown in the graph.
The importance of PELP1 and AR interaction on DHT-mediated proliferation of prostate cancer cells were confirmed using rescue experiments, where D2 suppression of DHT-mediated proliferation was overcome by overexpression of PELP1 in LNCaP PCa cells.
(§1) In this experiment, cells were plated (2-10×10^3/well) in 96 well plates and subjected to androgen deprivation for 48 hours with phenol-red free RPMI and 1% charcoal stripped fetal bovine serum (CSF). Cells were then treated with either ethanol, EGF or DHT as a positive control for 48 hours. Peptidomimetics were added 2 hours prior to treatment. Cell proliferation was measured using the MTT colorimetric assay.
as §1, with “Cells” for “In this experiment, cells”, “96-well” for “96 well”, “ethanol” for “ethanol, EGF”, “hours” for “hours.”

| Molecule | activity on the proliferation of prostate cancer cells (FIGS. 17, 19A-N) |
| --- | --- |
| COC(=O)c1ccc(NC(=O)c2ccc(NC(=O)CN)c(OCC(C)C)c2)c(OCC(C)C)c1 [D2-4] | maximal activity; also recorded: good activity |
| CC(C)COc1cc(C(=O)Nc2ccc(C(N)=O)cc2OCC(C)C)ccc1NC(=O)CCC(=O)O [D2-12] | good activity |
| CC(C)COc1cc(C(=O)Nc2ccc(C(=O)N(C(C)C)C(C)C)cc2OCC(C)C)ccc1NC(=O)CN [D2-23] | good activity |
| CC(C)COc1cc(C(=O)Nc2ccc(C(=O)NCCCCO)cc2OCC(C)C)ccc1NC(=O)CN [D2-26] | good activity |
| COC(=O)c1ccc(NC(=O)c2ccc([N+](=O)[O-])c(NCC(C)C)c2)c(NCC(C)C)c1 [D2-47] | good activity |
| C=C(C)COc1cc(C(=O)OC)ccc1NC(=O)c1ccc([N+](=O)[O-])c(OCC(=C)C)c1 [D29] | good activity |
| CC(C)COc1cc(C(=O)Nc2ccc(C(N)=O)cc2OCCc2ccc3ccccc3c2)ccc1NC(=O)c1ccc([N+](=O)[O-])c(OCC(C)C)c1 [TK6-R] | good activity |

Target: T1, human AR (Homo sapiens, UniProt P10275)
T1 sequence (P10275 1-920): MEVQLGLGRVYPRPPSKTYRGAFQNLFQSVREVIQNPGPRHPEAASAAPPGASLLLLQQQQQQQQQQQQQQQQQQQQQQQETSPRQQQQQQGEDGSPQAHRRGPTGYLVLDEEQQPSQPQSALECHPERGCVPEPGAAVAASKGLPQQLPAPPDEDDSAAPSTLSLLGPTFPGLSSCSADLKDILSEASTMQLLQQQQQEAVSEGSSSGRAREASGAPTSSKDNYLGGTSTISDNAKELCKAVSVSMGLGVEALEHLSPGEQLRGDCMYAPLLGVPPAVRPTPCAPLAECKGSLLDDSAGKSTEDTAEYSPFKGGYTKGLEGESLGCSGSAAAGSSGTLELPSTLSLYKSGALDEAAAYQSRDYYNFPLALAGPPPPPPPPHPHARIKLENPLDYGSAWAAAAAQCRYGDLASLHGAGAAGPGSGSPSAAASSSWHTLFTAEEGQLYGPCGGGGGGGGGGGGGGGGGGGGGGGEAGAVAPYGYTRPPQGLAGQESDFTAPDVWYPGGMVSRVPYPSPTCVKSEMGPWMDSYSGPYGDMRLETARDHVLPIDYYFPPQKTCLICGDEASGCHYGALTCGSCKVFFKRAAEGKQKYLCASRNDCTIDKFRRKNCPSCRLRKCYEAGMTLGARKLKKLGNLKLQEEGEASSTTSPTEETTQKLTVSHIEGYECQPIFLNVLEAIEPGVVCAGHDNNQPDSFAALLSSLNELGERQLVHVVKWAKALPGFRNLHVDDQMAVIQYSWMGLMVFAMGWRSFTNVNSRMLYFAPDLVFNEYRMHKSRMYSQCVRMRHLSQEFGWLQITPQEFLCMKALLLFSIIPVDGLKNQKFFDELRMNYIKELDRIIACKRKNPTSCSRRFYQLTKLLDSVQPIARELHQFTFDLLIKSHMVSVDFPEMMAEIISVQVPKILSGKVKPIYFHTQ
Experiment: not given
Settings: LXXLL motif-bound AF-2 interface of human AR; PLoS Biology 2:e274, 2004; read-out: Kd of LXXLL peptide; cited from earlier work

| Molecule | Kd |
| --- | --- |
| SSRGLLWDLLTKDSR [LXXLL peptide co-crystallised with human AR AF-2] | 1.8 µM |
